In patent US10172358B2, “Thiopicolinamide compounds with fungicidal activity” (Dow AgroSciences LLC, priority 2016, dated 2019):
Read-outs that look alike come from different tables or passages of the source.

What was measured:
Zymoseptoria tritici = experiment: Fungicidal activity: leaf blotch of wheat (SEPTTR), disease control on wheat seedlings; format: in vivo, Zymoseptoria tritici on wheat plants (variety Yuma); settings: for pest or weed control at 100 ppm: high volume application
Description: Evaluation of Fungicidal Activity: Leaf Blotch of Wheat (Zymoseptoria Tritici; Bayer Code […]) Technical grades of materials were dissolved in acetone, which were then mixed with nine volumes of water (H2O) containing 110 ppm Triton X-100. The fungicide solutions were applied onto wheat seedlings using an automated booth sprayer to run-off. All sprayed plants were allowed to air dry prior to further handling. All fungicides were evaluated using the aforementioned method for their activity vs. all target diseases, unless stated otherwise. Wheat leaf blotch and brown rust activity were also evaluated using track spray applications, in which case the fungicides were formulated as EC formulations, containing 0.1% Trycol 5941 in the spray solutions. Wheat plants (variety Yuma) were grown from seed in a greenhouse in 50% mineral soil/50% soil-less Metro mix until the first leaf was fully emerged, with 7-10 seedlings per pot. These plants were inoculated with an aqueous spore suspension of Zymoseptoria tritici either prior to or after fungicide treatments. After inoculation the plants were kept in 100% relative humidity (one day in a dark dew chamber followed by two to three days in a lighted dew chamber at 20° C.) to permit spores to germinate and infect the leaf. The plants were then transferred to a greenhouse set at 20° C. for disease to develop. When disease symptoms were fully expressed on the 1st leaves of untreated plants, infection levels were assessed on a scale of 0 to 100 percent disease severity. Percent disease control was calculated using the ratio of disease severity on treated plants relative to untreated plants.

Puccinia triticina = experiment: Fungicidal activity: wheat brown rust (PUCCRT), disease control on wheat seedlings; format: in vivo, Puccinia triticina on wheat plants (variety Yuma); settings: high volume application, 100 ppm
Description: Technical grades of materials were dissolved in acetone, which were then mixed with nine volumes of water (H2O) containing 110 ppm Triton X-100. The fungicide solutions were applied onto wheat seedlings using an automated booth sprayer to run-off. All sprayed plants were allowed to air dry prior to further handling. All fungicides were evaluated using the aforementioned method for their activity vs. all target diseases, unless stated otherwise. Wheat leaf blotch and brown rust activity were also evaluated using track spray applications, in which case the fungicides were formulated as EC formulations, containing 0.1% Trycol 5941 in the spray solutions. Evaluation of Fungicidal Activity: Wheat Brown Rust (Puccinia triticina; Synonym: Puccinia recondita f. Sp. Tritici; Bayer Code PUCCRT) Wheat plants (variety Yuma) were grown from seed in a greenhouse in 50% mineral soil/50% soil-less Metro mix until the first leaf was fully emerged, with 7-10 seedlings per pot. These plants were inoculated with an aqueous spore suspension of Puccinia triticina either prior to or after fungicide treatments. After inoculation the plants were kept in a dark dew room at 22° C. with 100% relative humidity overnight to permit spores to germinate and infect the leaf. The plants were then transferred to a greenhouse set at 24° C. for disease to develop. Fungicide formulation, application and disease assessment followed the procedures as described in the Example A. The results of the evalution are shown below in Table 4.

[1] = 24 h, 1 day protectant, read-out: SEPTTR 1DP disease control, HV activity at 100 ppm
[2] = 72 h, 3 day curative, read-out: SEPTTR 3DC disease control, HV activity at 100 ppm
[3] = 24 h, 1 day protectant, read-out: PUCCRT 1DP disease control, HV activity at 100 ppm
[4] = 72 h, 3 day curative, read-out: PUCCRT 3DC disease control, HV activity at 100 ppm

Row | SMILES | pest or weed control at 100 ppm (Zymoseptoria tritici; [1]) | pest or weed control at 100 ppm (Zymoseptoria tritici; [2]) | pest or weed control at 100 ppm (Puccinia triticina; [3]) | pest or weed control at 100 ppm (Puccinia triticina; [4]) | pest or weed control at 121.5 g/ha (Zymoseptoria tritici; 24 h, low volume application, 121.5 g/H, 1 day protectant, read-out: SEPTTR 1DP disease control, LV activity at 121.5 g/H)
1 | COc1ccnc(C(=S)N[C@@H](C)C(=O)O[C@H](C(C)C)[C@H](C)Oc2ccc(C)cc2)c1O [Compound 1] | ≤ 80% | ≤ 80% | > 80% | > 80% | 
2 | COc1ccnc(C(=S)N[C@@H](C)C(=O)O[C@@H](C)C(c2ccc(Cl)cc2)c2ccc(Cl)cc2)c1O [Compound 2] | > 80% | > 80% | > 80% |  | 
3 | COc1ccnc(C(=S)N[C@@H](C)C(=O)O[C@@H](C)C(c2ccc(C)cc2C)c2ccc(C)cc2C)c1O [Compound 3] | > 80% | > 80% | > 80% |  | 
4 | COc1ccnc(C(=S)N[C@@H](C)C(=O)O[C@@H](C)[C@@H](c2ccccc2)c2ccc(F)cc2)c1O [Compound 4] | > 80% | > 80% | > 80% |  | 
5 | COc1ccc(C(c2ccc(OC)cc2F)[C@H](C)OC(=O)[C@H](C)NC(=S)c2nccc(OC)c2O)c(F)c1 [Compound 5] | > 80% | > 80% | > 80% |  | 
6 | COc1ccnc(C(=S)N[C@@H](C)C(=O)O[C@@H](C)[C@@H](c2ccc(C)cc2)c2ccc(F)cc2C)c1O [Compound 6] | > 80% | > 80% | > 80% | ≤ 80% | 
7 | COc1ccnc(C(=S)N[C@@H](C)C(=O)O[C@H](C)C(c2ccc(F)cc2)c2ccc(F)cc2)c1O [Compound 7] | ≤ 80% |  | ≤ 80% |  | 
8 | CCCCC[C@@H](OC(=O)[C@H](C)NC(=S)c1nccc(OC)c1O)[C@H](C)Oc1ccccc1 [Compound 8] | ≤ 80% | ≤ 80% | > 80% |  | 
9 | COc1ccnc(C(=S)N[C@@H](C)C(=O)O[C@@H](C)[C@H](Oc2ccc(Cl)cc2Cl)c2ccccc2)c1O [Compound 9] | > 80% | > 80% | > 80% |  | 
10 | CCCCC[C@H](OC(=O)[C@H](C)NC(=S)c1nccc(OC)c1O)[C@@H](C)Oc1ccccc1 [Compound 10] |  |  | ≤ 80% |  | 
11 | COc1ccc(O[C@@H](C)[C@H](OC(=O)[C@H](C)NC(=S)c2nccc(OC)c2O)C(C)C)cc1 [Compound 11] | > 80% | ≤ 80% | > 80% | > 80% | 
12 | COc1cc(F)ccc1[C@H](c1ccccc1)[C@H](C)OC(=O)[C@H](C)NC(=S)c1nccc(OC)c1O [Compound 12] | > 80% | ≤ 80% | > 80% | ≤ 80% | 
13 | COc1ccccc1C(c1ccccc1OC)[C@H](C)OC(=O)[C@H](C)NC(=S)c1nccc(OC)c1O [Compound 13] | > 80% | > 80% | > 80% | ≤ 80% | 
14 | COc1cc(Cl)ccc1C(c1ccc(Cl)cc1OC)[C@H](C)OC(=O)[C@H](C)NC(=S)c1nccc(OC)c1O [Compound 14] | > 80% | > 80% | > 80% | ≤ 80% | 
15 | COc1ccnc(C(=S)N[C@H](C)C(=O)O[C@@H](C)C(c2ccc(F)cc2)c2ccc(F)cc2)c1O [Compound 15] | > 80% |  |  |  | 
16 | COc1ccnc(C(=S)N[C@@H](C)C(=O)O[C@H](CC(C)C)[C@H](C)Oc2ccccc2)c1O [Compound 21] | ≤ 80% | ≤ 80% |  |  | 
17 | CCC[C@H](OC(=O)[C@H](C)NC(=S)c1nccc(OC)c1O)[C@@H](C)Oc1ccccc1 [Compound 34] | ≤ 80% |  |  |  | 
18 | COc1ccnc(C(=S)N[C@@H](C)C(=O)O[C@H](C)C(c2ccc(F)cc2)c2ccc(F)cc2)c1OC(C)=O [Compound 55] |  |  |  |  | ≤ 80%
